Measurements reported in patent US9447044B2, “Thioaryl derivatives as GPR120 agonists” (LG LIFE SCIENCES LTD., priority 2012, dated 2016).

What follows are compounds tested against T1, hGPR120 (Homo sapiens, UniProt Q5NUL3) (assay: Measurement of activity of GPR120 agonist (cell-based assay), calcium fluorescence). Conditions: CHO-K1 cells expressing Ga16 and hGPR120; Calcium 5 dye fluorescence; activity class.
T1 construct: expressed in transfected cells; host or cells: CHO-K1
T1 sequence (Q5NUL3 1-361): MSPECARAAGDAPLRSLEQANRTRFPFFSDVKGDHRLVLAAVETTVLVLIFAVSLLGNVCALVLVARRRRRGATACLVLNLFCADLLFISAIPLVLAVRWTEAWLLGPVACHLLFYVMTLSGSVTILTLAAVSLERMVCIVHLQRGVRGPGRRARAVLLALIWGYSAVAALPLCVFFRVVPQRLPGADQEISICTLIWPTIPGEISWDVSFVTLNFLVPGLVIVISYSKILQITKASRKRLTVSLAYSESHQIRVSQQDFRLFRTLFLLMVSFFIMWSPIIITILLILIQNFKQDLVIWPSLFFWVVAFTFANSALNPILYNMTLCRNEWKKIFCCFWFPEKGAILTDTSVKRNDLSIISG
Method: CHO-K1 cells expressing Ga16 and hGPR120 were dispensed into each well of a 96-well plate (3×10^4 cells/100 μl/well) and then incubated in 5% CO2, 37° C. incubator for 18 hours. Each well was treated with 100 μl of Calcium 5 dye (Molecular Devices) solution including 2% DMSO and then incubated in 5% CO2, 37° C. incubator for 1 hour. Serially diluted GPR120 agonists were prepared to a final concentration of 0.5% DMSO in a 96-well plate. Each well was treated with 50 μl of the agonist compounds using Plexstation II, and then fluorescence was measured at Ex 485 nm, Em 525 nm.
Fluorescence increased by the serially diluted GPR120 agonists is calculated as a relative percent (%) value based on the fluorescence represented by the treatment of 0.1% DMSO only. […] The calculation of measurement was carried out by using statistical software (Prizm).
Activity is denoted based on the following criteria: A=>20 μM, B=[…], C=2˜0.2 μM, D=<0.2 μM

| EC50 | Compound |
| --- | --- |
| 200 to 2000 nM | O=C(O)CCc1cc(F)c(OCc2cccnc2SCC(F)(F)F)c(F)c1 [Example 18, 3-{3,5-difluoro-4-[2-(2,2,2-trifluoro-ethylsulfanyl)-pyridin-3-ylmethoxy]-phenyl}-propionic acid] |
| < 200 nM | CCC(C)Sc1ncccc1COc1c(F)cc(CCC(=O)O)cc1F (centres unmarked) [Example 19, 3-[4-(2-sec-butylsulfanyl-pyridin-3-ylmethoxy)-3,5-difluoro-phenyl]-propionic acid] |
| 200 to 2000 nM | CC(C)Sc1nccnc1COc1c(F)cc(CCC(=O)O)cc1F [Example 20, 3-[3,5-difluoro-4-(3-isopropylsulfanyl-pyrazin-2-ylmethoxy)-phenyl]-propionic acid] |
| 200 to 2000 nM | O=C(O)CCc1cc(F)c(OCc2cccnc2SC2CCCCC2)c(F)c1 [Example 22, 3-[4-(2-cyclohexylsulfanyl-pyridin-3-ylmethoxy)-3,5-difluoro-phenyl]-propionic acid] |
| < 200 nM | O=C(O)CCc1cc(F)c(OCc2cccnc2SC2CCC2)c(F)c1 [Example 23, 3-[4-(2-cyclobutylsulfanyl-pyridin-3-ylmethoxy)-3,5-difluoro-phenyl]-propionic acid] |
| 200 to 2000 nM | CC(C)Sc1nccc(COc2c(F)cc(CCC(=O)O)cc2F)n1 [Example 24, 3-[3,5-difluoro-4-(2-isopropylsulfanyl-pyrimidin-4-ylmethoxy)-phenyl]-propionic acid] |
| < 200 nM | CC(Cc1ccc(OCc2cccnc2SC2CCCC2)cc1)C(=O)O (centres unmarked) [Example 25, 3-[4-(2-cyclopentylsulfanyl-pyridin-3-ylmethoxy)-phenyl]-2-methyl-propionic acid] |
| < 200 nM | CCCCSc1ncccc1COc1c(F)cc(CCC(=O)O)cc1F [Example 26, 3-[4-(2-butylsulfanyl-pyridin-3-ylmethoxy)-3,5-difluoro-phenyl]-propionic acid] |
| 200 to 2000 nM | O=C(O)CCc1cc(F)c(OCc2cccnc2SCCC(F)(F)F)c(F)c1 [Example 27, 3-{3,5-difluoro-4-[2-(3,3,3-trifluoro-propylsulfanyl)-pyridin-3-ylmethoxy]-phenyl}-propionic acid] |
| 200 to 2000 nM | CC(C)(C)CSc1ncccc1COc1c(F)cc(CCC(=O)O)cc1F [Example 28, 3-{4-[2-(2,2-dimethyl-propylsulfanyl)-pyridin-3-ylmethoxy]-3,5-difluoro-phenyl}-propionic acid] |
| < 200 nM | O=C(O)CCc1ccc(OCc2cccc(SC3CCCC3)n2)cc1 [Example 29] |
| < 200 nM | O=C(O)CCc1cc(F)c(OCc2cccc(SC3CCCC3)n2)c(F)c1 [Example 30] |
| < 200 nM | O=C(O)CCc1cc(F)c(OCc2cccc(SC3CCCCC3)n2)c(F)c1 [Example 31] |
| 200 to 2000 nM | CCc1ccc(COc2c(F)cc(CCC(=O)O)cc2F)c(SC(C)C)n1 [Example 32] |
| < 200 nM | CC(C)Sc1cccc(COc2c(F)cc(CCC(=O)O)cc2F)n1 [Example 33, 3-[3,5-difluoro-4-(6-isopropylsulfanyl-pyridin-2-ylmethoxy)-phenyl]-propionic acid] |
| < 200 nM | CCC(C)Sc1cccc(COc2c(F)cc(CCC(=O)O)cc2F)n1 (centres unmarked) [Example 34, 3-[4-(6-sec-butylsulfanyl-pyridin-2-ylmethoxy)-3,5-difluoro-phenyl]-propionic acid] |
| < 200 nM | O=C(O)C1CC1c1cc(F)c(OCc2cccc(SC3CCCC3)n2)c(F)c1 (centres unmarked) [Example 35, 2-[4-(6-cyclopentylsulfanyl-pyridin-2-ylmethoxy)-3,5-difluoro-phenyl]-cyclopropane carboxylic acid] |
| < 200 nM | O=C(O)C1CC1c1cc(F)c(OCc2cccnc2SC2CCC2)c(F)c1 (centres unmarked) [Example 36, 2-[4-(2-cyclobutylsulfanyl-pyridin-3-ylmethoxy)-3,5-difluoro-phenyl]-cyclopropane carboxylic acid] |
| < 200 nM | CC(Cc1ccc(OCc2cccnc2SC2CCC2)c(F)c1)C(=O)O (centres unmarked) [Example 37, 3-[4-(2-cyclobutylsulfanyl-pyridin-3-ylmethoxy)-3-fluoro-phenyl]-2-methyl-propionic acid] |

| EC50 | Compound |
| --- | --- |
| < 200 nM | CC(Cc1ccc(OCc2cccnc2SC2CCCC2)c(F)c1)C(=O)O (centres unmarked) [Example 38, 3-[4-(2-cyclopentylsulfanyl-pyridin-3-ylmethoxy)-3-fluoro-phenyl]-2-methyl-propionic acid] |
| < 200 nM | CCC(C)Sc1ncccc1COc1ccc(CC(C)C(=O)O)cc1F (centres unmarked) [Example 39, 3-[4-(2-sec-butylsulfanyl-pyridin-3-ylmethoxy)-3-fluoro-phenyl]-2-methyl-propionic acid] |
| < 200 nM | CC(Cc1ccc(OCc2cccnc2SCC2CC2)c(F)c1)C(=O)O (centres unmarked) [Example 40, 3-[4-(2-cyclopropylmethylsulfanyl-pyridin-3-ylmethoxy)-3-fluoro-phenyl]-2-methyl-propionic acid] |
| < 200 nM | CC(C)Sc1ncccc1COc1c(F)cc(CC(C)C(=O)O)cc1F (centres unmarked) [Example 41, 3-[3,5-difluoro-4-(2-isopropylsulfanyl-pyridin-3-ylmethoxy)-phenyl]-2-methyl-propionic acid] |
| 200 to 2000 nM | CCC(C)Sc1ncccc1COc1c(F)cc(CC(C)C(=O)O)cc1F (centres unmarked) [Example 42, 3-[4-(2-sec-butylsulfanyl-pyridin-3-ylmethoxy)-3,5-difluoro-phenyl]-2-methyl-propionic acid] |
| < 200 nM | COc1ccc(COc2c(F)cc(CCC(=O)O)cc2F)c(SC(C)C)n1 [Example 43, 3-[3,5-difluoro-4-(2-isopropylsulfanyl-6-methoxy-pyridin-3-ylmethoxy)-phenyl]-propionic acid] |
| < 200 nM | CC(Cc1cc(F)c(OCc2cccc(SC3CCCC3)n2)c(F)c1)C(=O)O (centres unmarked) [Example 44, 3-[4-(6-cyclopentylsulfanyl-pyridin-2-ylmethoxy)-3,5-difluoro-phenyl]-2-methyl-propionic acid] |
| < 200 nM | Cc1ccc(COc2c(F)cc(CCC(=O)O)cc2F)c(SC2CCCC2)n1 [Example 45, 3-[4-(2-cyclopentylsulfanyl-6-methyl-pyridin-3-ylmethoxy)-3,5-difluoro-phenyl]-propionic acid] |
| < 200 nM | CC(Cc1cc(F)c(OCc2cccc(SC3CCC3)n2)c(F)c1)C(=O)O (centres unmarked) [Example 46, 3-[4-(6-cyclobutylsulfanyl-pyridin-2-ylmethoxy)-3,5-difluoro-phenyl]-2-methyl-propionic acid] |
| < 200 nM | CC(Cc1cc(F)c(OCc2cccnc2SC2CCCC2)c(F)c1)C(=O)O (centres unmarked) [Example 47, 3-[4-(2-cyclopentylsulfanyl-pyridin-3-ylmethoxy)-3,5-difluoro-phenyl]-2-methyl-propionic acid] |
| 200 to 2000 nM | CCC(C)Sc1cccc(COc2c(F)cc(CC(C)C(=O)O)cc2F)n1 (centres unmarked) [Example 48, 3-[4-(6-sec-butylsulfanyl-pyridin-2-ylmethoxy)-3,5-difluoro-phenyl]-2-methyl-propionic acid] |
| < 200 nM | CC(C)Sc1cccc(COc2c(F)cc(CC(C)C(=O)O)cc2F)n1 (centres unmarked) [Example 49, 3-[3,5-difluoro-4-(6-isopropylsulfanyl-pyridin-2-ylmethoxy)-phenyl]-2-methyl-propionic acid] |
| < 200 nM | CC(Cc1cc(F)c(OCc2cccnc2SCC2CC2)c(F)c1)C(=O)O (centres unmarked) [Example 50, 3-[4-(2-cyclopropylmethylsulfanyl-pyridin-3-ylmethoxy)-3,5-difluoro-phenyl]-2-methyl-propionic acid] |
| < 200 nM | CCCSc1ncccc1COc1c(F)cc(CC(C)C(=O)O)cc1F (centres unmarked) [Example 51, 3-[3,5-difluoro-4-(2-propylsulfanyl-pyridin-3-ylmethoxy)-phenyl]-2-methyl-propionic acid] |
| < 200 nM | CC(C)Sc1cccc(COc2ccc(CC(C)C(=O)O)cc2F)n1 (centres unmarked) [Example 52, 3-[3-fluoro-4-(6-isopropylsulfanyl-pyridin-2-ylmethoxy)-phenyl]-2-methyl-propionic acid] |
| 200 to 2000 nM | CCC(C)Sc1cccc(COc2ccc(CC(C)C(=O)O)cc2F)n1 (centres unmarked) [Example 53, 3-[4-(6-sec-butylsulfanyl-pyridin-2-ylmethoxy)-3-fluoro-phenyl]-2-methyl-propionic acid] |
| < 200 nM | CC(Cc1ccc(OCc2cccc(SC3CCCC3)n2)c(F)c1)C(=O)O (centres unmarked) [Example 54, 3-[4-(6-cyclopentylsulfanyl-pyridin-2-ylmethoxy)-3-fluoro-phenyl]-2-methyl-propionic acid] |
| < 200 nM | CC(Cc1ccc(OCc2cccc(SC3CCC3)n2)c(F)c1)C(=O)O (centres unmarked) [Example 55, 3-[4-(6-cyclobutylsulfanyl-pyridin-2-ylmethoxy)-3-fluoro-phenyl]-2-methyl-propionic acid] |

Same assay, conditions: CHO-K1 cells expressing Ga16 and hGPR120; Calcium 5 dye fluorescence; numeric value

| EC50 | Compound |
| --- | --- |
| 68 nM | O=C(O)CCCc1ccc(OCc2cccnc2SC2CCCC2)cc1 [Example 21, 4-[4-(2-cyclopentylsulfanyl-pyridin-3-ylmethoxy)-phenyl]-butyric acid] |
